Source: patent US20260028326A1, “COMPOUND BASED ON ISOINDOLINE-SUBSTITUTED GLUTARIMIDE BACKBONE AND USE THEREOF” (GLUETACS THERAPEUTICS (SHANGHAI) CO., LTD., priority 2022, published 2026)

Biological target: human Cereblon WT GST-tagged protein (Homo sapiens (Human), UniProt Q96SW2)
Assay: CRBN-binding affinity, HTRF (CEREBLON BINDING kit)
Procedure: The CEREBLON BINDING kits (specification: 10,000 tests; product number: Catalog #64BDCRBNPEH; CISBIO company) was used to determine the CRBN binding ability of the compounds to be tested through a HTRF method (homogeneous time-resolved fluorescence). The specific methods are as follows: • 1. […] Then, 2.5 μL of human Cereblon WT GST-tagged protein solution was added to each well. Finally, 5 μL of the thoroughly mixed Thalidomide-Re reagent and GST Eu antibody working solution were added to each of the aforementioned wells. […] The blank control wells were sequentially added with 2.5 μL of diluent #9 (1×) solution, 2.5 μL of PROTAC binding buffer, and 5 μL of thoroughly mixed Thalidomide-Re reagent and GST Eu antibody working solution. • 4.
The corresponding CRBN binding inhibition rate was calculated using the following method: […]

human Cereblon WT GST-tagged protein, sequence (Q96SW2 whole entry): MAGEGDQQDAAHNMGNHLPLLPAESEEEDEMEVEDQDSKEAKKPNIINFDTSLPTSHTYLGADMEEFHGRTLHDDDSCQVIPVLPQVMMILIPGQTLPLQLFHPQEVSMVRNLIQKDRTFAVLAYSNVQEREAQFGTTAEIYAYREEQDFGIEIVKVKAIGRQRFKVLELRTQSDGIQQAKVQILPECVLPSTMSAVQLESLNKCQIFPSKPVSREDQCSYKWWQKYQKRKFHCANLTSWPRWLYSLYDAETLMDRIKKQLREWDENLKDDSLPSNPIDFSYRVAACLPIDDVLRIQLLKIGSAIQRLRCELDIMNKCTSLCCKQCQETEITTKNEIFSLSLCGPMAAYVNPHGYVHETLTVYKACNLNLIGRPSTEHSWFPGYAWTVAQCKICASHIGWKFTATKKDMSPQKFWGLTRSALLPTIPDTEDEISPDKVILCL

IC50	Structure (SMILES)
1590 nM	O=C1CCC(N2Cc3cc(CC4CCN(Cc5ccccc5-c5ccc(Cl)cc5)CC4)ccc3C2=O)C(=O)N1 (centres unmarked) [GT-03361, 3-(5-((1-((4′-chloro-[1,1′-biphenyl]-2-yl)methyl)piperidin-4-yl)methyl)-1-oxoisoindolin-2-yl)piperidine-2,6-dione]
1380 nM	CC1(C)CCC(CN2CCC(Cc3ccc4c(c3)CN(C3CCC(=O)NC3=O)C4=O)CC2)=C(c2ccc(Cl)cc2)C1 (centres unmarked) [GT-03368, 3-(5-((1-((4′-chloro-5,5-dimethyl-3,4,5,6-tetrahydro-[1,1′-biphenyl]-2-yl)methyl)piperidin-4-yl)methyl)-1-oxoisoindolin-2-yl)piperidine-2,6-dione]
340 nM	CC1(C)CCC(CN2CCC(Cc3ccc4c(c3)CN(C3CCC(=O)NC3=O)C4=O)CC2)=C(c2ccc(F)cc2)C1 (centres unmarked) [GT-03455, 3-(5-((1-((4′-fluoro-5,5-dimethyl-3,4,5,6-tetrahydro-[1,1′-biphenyl]-2-yl)methyl)piperidin-4-yl)methyl)-1-oxoisoindolin-2-yl)piperidine-2,6-dione]
880 nM	O=C1CCC(N2Cc3cc(CN4CCN(Cc5ccccc5-c5ccc(Cl)cc5)CC4)cc(F)c3C2=O)C(=O)N1 (centres unmarked) [GT-03696, 3-(5-((4-((4′-chloro-[1,1′-biphenyl]-2-yl)methyl)piperazin-1-yl)methyl)-7-fluoro-1-oxoisoindolin-2-yl)piperidine-2,6-dione]
1400 nM	O=C1CCC(N2Cc3cc(NC4CCN(Cc5ccccc5-c5ccc(Cl)cc5)CC4)ccc3C2=O)C(=O)N1 (centres unmarked) [GT-03877, 3-(5-((1-((4′-chloro-[1,1′-biphenyl]-2-yl)methyl)piperidin-4-yl)amino)-1-oxoisoindolin-2-yl)piperidine-2,6-dione]
230 nM	O=C1CCC(N2Cc3cc(C(O)C4(O)CN(Cc5ccccc5-c5ccc(Cl)cc5)C4)ccc3C2=O)C(=O)N1 (centres unmarked) [GT-03880, 3-(5-((1-((4′-chloro-[1,1′-biphenyl]-2-yl)methyl)-3-hydroxyazetidin-3-yl)(hydroxy)methyl)-1-oxoisoindolin-2-yl)piperidine-2,6-dione]
190 nM	CC1(C)CCC(CN2C[C@H]3C[C@@H]2CN3Cc2ccc3c(c2)CN(C2CCC(=O)NC2=O)C3=O)=C(c2ccc(Cl)cc2)C1 (stereo partly drawn) [GT-03887, 3-(5-(((1R,4R)-5-((4′-chloro-5,5-dimethyl-3,4,5,6-tetrahydro-[1,1′-biphenyl]-2-yl)methyl)-2,5-diazabicyclo[2.2.1]heptan-2-yl)methyl)-1-oxoisoindolin-2-yl)piperidine-2,6-dione]
240 nM	CC1(C)CCC(CN2C[C@H]3C[C@@H]2CN3Cc2ccc3c(c2F)CN(C2CCC(=O)NC2=O)C3=O)=C(c2ccc(Cl)cc2)C1 (stereo partly drawn) [GT-03888, 3-(5-(((1R,4R)-5-((4′-chloro-5,5-dimethyl-3,4,5,6-tetrahydro-[1,1′-biphenyl]-2-yl)methyl)-2,5-diazabicyclo[2.2.1]heptan-2-yl)methyl)-4-fluoro-1-oxoisoindolin-2-yl)piperidine-2,6-dione]
170 nM	O=C1CCC(N2Cc3cc(CC4CN(Cc5ccccc5-c5ccc(Cl)cc5)C4)ccc3C2=O)C(=O)N1 (centres unmarked) [GT-03923, 3-(5-((1-((4′-chloro-[1,1′-biphenyl]-2-yl)methyl)azetidin-3-yl)methyl)-1-oxoisoindolin-2-yl)piperidine-2,6-dione]
470 nM	O=C1CCC(N2Cc3cc(CN4CCC(Nc5ccccc5-c5ccc(Cl)cc5)CC4)ccc3C2=O)C(=O)N1 (centres unmarked) [GT-03991, 3-(5-((4-((4′-chloro-[1,1′-biphenyl]-2-yl)amino)piperidin-1-yl)methyl)-1-oxoisoindolin-2-yl)piperidine-2,6-dione]
1010 nM	O=C1CCC(N2Cc3cc(CN4CCN(C(=O)C5=C(c6ccc(F)cc6)CCCC5)CC4)ccc3C2=O)C(=O)N1 (centres unmarked) [GT-04170, 3-(5-((4-(4′-fluoro-3,4,5,6-tetrahydro-[1,1′-biphenyl]-2-carbonyl)piperazin-1-yl)methyl)-1-oxoisoindolin-2-yl)piperidine-2,6-dione]
520 nM	O=C1CCC(N2Cc3cc(NC4CN(Cc5ccccc5-c5ccc(Cl)cc5)C4)c(F)cc3C2=O)C(=O)N1 (centres unmarked) [GT-04204, 3-(5-((1-((4′-chloro-[1,1′-biphenyl]-2-yl)methyl)azetidin-3-yl)amino)-6-fluoro-1-oxoisoindolin-2-yl)piperidine-2,6-dione]
560 nM	O=C1CCC(N2Cc3cc(CN4CCN(C(=O)c5ccncc5-c5ccc(Cl)cc5)CC4)ccc3C2=O)C(=O)N1 (centres unmarked) [GT-04222, 3-(5-((4-(3-(4-chlorophenyl)isonicotinoyl)piperazin-1-yl)methyl)-1-oxoisoindolin-2-yl)piperidine-2,6-dione]
430 nM	CC1(C)CCC(C(=O)N2CCN(Cc3ccc4c(c3)CN(C3CCC(=O)NC3=O)C4=O)CC2)=C(c2ccc(Cl)cc2)C1 (centres unmarked) [GT-04224, 3-(5-((4-(4′-chloro-5,5-dimethyl-3,4,5,6-tetrahydro-[1,1′-biphenyl]-2-carbonyl)piperazin-1-yl)methyl)-1-oxoisoindolin-2-yl)piperidine-2,6-dione]
200 nM	O=C1CCC(N2Cc3cc(NC4CN(C(=O)c5ccccc5-c5ccc(Cl)cc5)C4)ccc3C2=O)C(=O)N1 (centres unmarked) [GT-04397, 3-(5-((1-(4′-chloro-[1,1′-biphenyl]-2-carbonyl)azetidin-3-yl)amino)-1-oxoisoindolin-2-yl)piperidine-2,6-dione]
390 nM	O=C1CCC(N2Cc3c(CN4CCC(Nc5ccccc5-c5ccc(Cl)cc5)CC4)cccc3C2=O)C(=O)N1 (centres unmarked) [GT-04947, 3-(4-((4-((4′-chloro-[1,1′-biphenyl]-2-yl)amino)piperidin-1-yl)methyl)-1-oxoisoindolin-2-yl)piperidine-2,6-dione]
970 nM	CC1(C)CCC(C(=O)N2CCN(Cc3ccc(-c4ccc5c(c4)CN(C4CCC(=O)NC4=O)C5=O)cc3)CC2)=C(c2ccc(Cl)cc2)C1 (centres unmarked) [GT-05359, 3-(5-(4-((4-(4′-chloro-5,5-dimethyl-3,4,5,6-tetrahydro-[1,1′-biphenyl]-2-carbonyl)piperazin-1-yl)methyl)phenyl)-1-oxoisoindolin-2-yl)piperidine-2,6-dione]
370 nM	CC1(C)CCC(CN2CCN(CCc3ccc4c(c3)CN(C3CCC(=O)NC3=O)C4=O)CC2)=C(c2ccc(Cl)cc2)C1 (centres unmarked) [GT-05361, 3-(5-(2-(4-((4′-chloro-5,5-dimethyl-3,4,5,6-tetrahydro-[1,1′-biphenyl]-2-yl)methyl)piperazin-1-yl)ethyl)-1-oxoisoindolin-2-yl)piperidine-2,6-dione]
1260 nM	CC1(C)CCC(CN2CCN(CCCc3ccc4c(c3)CN(C3CCC(=O)NC3=O)C4=O)CC2)=C(c2ccc(Cl)cc2)C1 (centres unmarked) [GT-05362, 3-(5-(3-(4-((4′-chloro-5,5-dimethyl-3,4,5,6-tetrahydro-[1,1′-biphenyl]-2-yl)methyl)piperazin-1-yl)propyl)-1-oxoisoindolin-2-yl)piperidine-2,6-dione]
1440 nM	CC1(C)CCC(CN2CCN(C(=O)c3ccc4c(c3)C(=O)N(C3CCC(=O)NC3=O)C4=O)CC2)=C(c2ccc(Cl)cc2)C1 (centres unmarked) [GT-05366, 5-(4-((4′-chloro-5,5-dimethyl-3,4,5,6-tetrahydro-[1,1′-biphenyl]-2-yl)methyl)piperazine-1-carbonyl)-2-(2,6-dioxopiperidin-3-yl)isoindoline-1,3-dione]

Structure (SMILES)	IC50
CC1(C)CCC(CN2CC3CC(C2)N3Cc2ccc3c(c2)CN(C2CCC(=O)NC2=O)C3=O)=C(c2ccc(Cl)cc2)C1 (centres unmarked) [GT-03492, 3-(5-((3-((4′-chloro-5,5-dimethyl-3,4,5,6-tetrahydro-[1,1′-biphenyl]-2-yl)methyl)-3,6-diazabicyclo[3.1.1]heptan-6-yl)methyl)-1-oxoisoindolin-2-yl)piperidine-2,6-dione]	520 nM
CC1(C)CCC(CN2CC3CCC(C2)N3Cc2ccc3c(c2)CN(C2CCC(=O)NC2=O)C3=O)=C(c2ccc(Cl)cc2)C1 (centres unmarked) [GT-03889, 3-(5-((3-((4′-chloro-5,5-dimethyl-3,4,5,6-tetrahydro-[1,1′-biphenyl]-2-yl)methyl)-3,8-diazabicyclo[3.2.1]octan-8-yl)methyl)-1-oxoisoindolin-2-yl)piperidine-2,6-dione]	710 nM
CC1(C)CCC(CN2C3CC2CN(Cc2ccc4c(c2)CN(C2CCC(=O)NC2=O)C4=O)C3)=C(c2ccc(Cl)cc2)C1 (centres unmarked) [GT-03995, 3-(5-((6-((4′-chloro-5,5-dimethyl-3,4,5,6-tetrahydro-[1,1′-biphenyl]-2-yl)methyl)-3,6-diazabicyclo[3.1.1]heptan-3-yl)methyl)-1-oxoisoindolin-2-yl)piperidine-2,6-dione]	630 nM
CC1(C)CCC(CN2C3CCC2CN(Cc2ccc4c(c2)CN(C2CCC(=O)NC2=O)C4=O)C3)=C(c2ccc(Cl)cc2)C1 (centres unmarked) [GT-03996, 3-(5-((8-((4′-chloro-5,5-dimethyl-3,4,5,6-tetrahydro-[1,1′-biphenyl]-2-yl)methyl)-3,8-diazabicyclo[3.2.1]octan-3-yl)methyl)-1-oxoisoindolin-2-yl)piperidine-2,6-dione]	1440 nM
O=C1CCC(N2Cc3cc(CN4C5CC4CN(C(=O)C4=C(c6ccc(F)cc6)CCCC4)C5)ccc3C2=O)C(=O)N1 (centres unmarked) [GT-04169, 3-(5-((3-(4′-fluoro-3,4,5,6-tetrahydro-[1,1′-biphenyl]-2-carbonyl)-3,6-diazabicyclo[3.1.1]heptan-6-yl)methyl)-1-oxoisoindolin-2-yl)piperidine-2,6-dione]	850 nM
CC1(C)CCC(CN2CC3CC(C2)N3Cc2cc3c(cc2F)C(=O)N(C2CCC(=O)NC2=O)C3)=C(c2ccc(Cl)cc2)C1 (centres unmarked) [GT-05367, 3-(5-((3-((4′-chloro-5,5-dimethyl-3,4,5,6-tetrahydro-[1,1′-biphenyl]-2-yl)methyl)-3,6-diazabicyclo[3.1.1]heptan-6-yl)methyl)-6-fluoro-1-oxoisoindolin-2-yl)piperidine-2,6-dione]	400 nM
